According to article PMC7747971 (Plant Communications, 2020):

What was measured:
AtTPS19 = AtTPS19 (Arabidopsis thaliana, UniProt Q9LUE0); type: cell-based
AtTPS22 = molecular target: T1, AtTPS22 (Arabidopsis thaliana, UniProt Q9LQ27); type: cell-based
T1 sequence (Q9LQ27 57-603): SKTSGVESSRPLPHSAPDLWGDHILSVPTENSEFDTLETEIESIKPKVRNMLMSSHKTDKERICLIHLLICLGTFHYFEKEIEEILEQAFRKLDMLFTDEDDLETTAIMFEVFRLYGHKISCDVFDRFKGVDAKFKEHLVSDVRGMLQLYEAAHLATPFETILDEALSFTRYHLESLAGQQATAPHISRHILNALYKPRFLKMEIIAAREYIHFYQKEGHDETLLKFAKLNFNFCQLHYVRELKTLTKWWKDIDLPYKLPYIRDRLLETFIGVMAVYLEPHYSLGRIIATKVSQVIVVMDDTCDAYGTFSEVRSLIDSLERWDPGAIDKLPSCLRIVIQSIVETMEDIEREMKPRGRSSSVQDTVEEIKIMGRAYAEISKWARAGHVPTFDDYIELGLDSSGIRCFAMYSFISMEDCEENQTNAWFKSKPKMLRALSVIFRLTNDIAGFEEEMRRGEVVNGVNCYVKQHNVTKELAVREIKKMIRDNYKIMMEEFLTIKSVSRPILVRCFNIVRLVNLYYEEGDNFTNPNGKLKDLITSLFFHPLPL

AtTPS06 = molecular target: T2, AtTPS06 (Arabidopsis thaliana, UniProt Q84UU9); type: cell-based
T2 sequence (Q84UU9 53-611): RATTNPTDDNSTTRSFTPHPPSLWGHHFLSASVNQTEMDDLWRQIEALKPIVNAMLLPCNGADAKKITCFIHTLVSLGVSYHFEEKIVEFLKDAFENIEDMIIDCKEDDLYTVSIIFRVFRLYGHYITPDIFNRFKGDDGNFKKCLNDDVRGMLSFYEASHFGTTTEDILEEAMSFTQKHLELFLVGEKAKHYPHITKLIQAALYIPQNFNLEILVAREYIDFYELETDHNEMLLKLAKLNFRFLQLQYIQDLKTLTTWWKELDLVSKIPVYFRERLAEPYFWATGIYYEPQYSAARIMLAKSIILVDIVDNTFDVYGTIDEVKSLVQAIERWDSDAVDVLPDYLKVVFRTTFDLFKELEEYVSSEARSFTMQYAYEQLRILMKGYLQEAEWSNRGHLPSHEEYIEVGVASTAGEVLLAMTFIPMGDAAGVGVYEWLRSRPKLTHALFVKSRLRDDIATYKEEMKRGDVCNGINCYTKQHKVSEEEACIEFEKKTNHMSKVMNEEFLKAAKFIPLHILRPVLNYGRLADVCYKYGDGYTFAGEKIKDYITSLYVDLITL

AtTPS29 = AtTPS29 (Arabidopsis thaliana, UniProt Q9C6W6); type: cell-based
Sequence of AtTPS29 (Q9C6W6 51-607): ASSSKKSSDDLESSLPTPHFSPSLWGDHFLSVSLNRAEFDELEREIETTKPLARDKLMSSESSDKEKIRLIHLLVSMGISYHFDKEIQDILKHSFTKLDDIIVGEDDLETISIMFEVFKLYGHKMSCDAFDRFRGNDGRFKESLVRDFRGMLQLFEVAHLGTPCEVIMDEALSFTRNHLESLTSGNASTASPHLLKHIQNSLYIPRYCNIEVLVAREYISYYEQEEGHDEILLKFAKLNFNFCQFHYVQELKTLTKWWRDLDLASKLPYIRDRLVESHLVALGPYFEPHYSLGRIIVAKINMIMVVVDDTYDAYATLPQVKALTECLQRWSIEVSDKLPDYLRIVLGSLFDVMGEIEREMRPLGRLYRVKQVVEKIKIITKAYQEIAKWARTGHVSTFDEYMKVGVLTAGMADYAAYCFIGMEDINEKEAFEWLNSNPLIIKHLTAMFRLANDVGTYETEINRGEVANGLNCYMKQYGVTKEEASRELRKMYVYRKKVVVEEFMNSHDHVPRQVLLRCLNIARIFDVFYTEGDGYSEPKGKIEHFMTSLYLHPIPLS

AtTPS18 = AtTPS18 (Arabidopsis thaliana, UniProt Q9LUE2); test: X-ray crystal structure; type: binding; conditions: AtTPS18-PP complex
Sequence of AtTPS18 (Q9LUE2 52-605): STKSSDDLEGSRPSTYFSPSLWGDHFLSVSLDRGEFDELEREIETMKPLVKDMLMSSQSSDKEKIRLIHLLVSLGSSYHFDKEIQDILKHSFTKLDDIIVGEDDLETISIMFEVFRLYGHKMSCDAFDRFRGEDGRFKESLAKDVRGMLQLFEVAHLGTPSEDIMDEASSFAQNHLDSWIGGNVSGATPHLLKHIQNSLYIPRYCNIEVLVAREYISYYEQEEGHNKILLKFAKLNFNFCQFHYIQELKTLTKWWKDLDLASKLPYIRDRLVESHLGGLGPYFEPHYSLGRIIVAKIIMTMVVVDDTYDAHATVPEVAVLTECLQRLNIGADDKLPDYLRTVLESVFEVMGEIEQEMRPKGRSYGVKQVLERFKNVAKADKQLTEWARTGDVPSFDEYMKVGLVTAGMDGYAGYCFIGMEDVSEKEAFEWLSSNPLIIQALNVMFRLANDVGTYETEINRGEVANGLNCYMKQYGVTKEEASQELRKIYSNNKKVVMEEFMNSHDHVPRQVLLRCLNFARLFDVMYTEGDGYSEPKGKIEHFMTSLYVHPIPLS

Sequence of AtTPS19 (Q9LUE0 49-602): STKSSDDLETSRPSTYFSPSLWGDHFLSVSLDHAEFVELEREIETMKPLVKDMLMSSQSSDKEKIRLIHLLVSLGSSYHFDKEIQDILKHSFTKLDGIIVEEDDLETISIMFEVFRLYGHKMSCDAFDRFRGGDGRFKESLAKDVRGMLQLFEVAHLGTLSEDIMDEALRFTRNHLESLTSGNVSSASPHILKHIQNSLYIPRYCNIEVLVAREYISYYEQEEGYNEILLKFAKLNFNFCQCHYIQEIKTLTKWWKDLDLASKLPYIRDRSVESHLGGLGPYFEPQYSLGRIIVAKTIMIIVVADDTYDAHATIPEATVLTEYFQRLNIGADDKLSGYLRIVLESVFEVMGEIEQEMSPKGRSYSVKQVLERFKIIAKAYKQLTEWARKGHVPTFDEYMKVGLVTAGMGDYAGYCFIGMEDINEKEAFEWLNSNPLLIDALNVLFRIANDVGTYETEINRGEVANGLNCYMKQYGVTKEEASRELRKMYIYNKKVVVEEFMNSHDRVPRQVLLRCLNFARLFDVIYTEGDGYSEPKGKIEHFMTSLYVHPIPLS

Row | Compound | GC-MS of products in E. coli (AtTPS19) | GC-MS of products in E. coli (AtTPS22) | GC-MS of products in E. coli (AtTPS06) | GC-MS of products in E. coli (AtTPS29) | X-ray crystal structure (AtTPS18)
1 | CC(C)=CCC/C(C)=C/CC/C(C)=C/CC/C(C)=C/CC/C(C)=C/COP(=O)(O)OP(=O)(O)O [GFPP] | C8 (the main product of AtTPS19) | sesterterpenes ... were detected in transgenic E. coli strains harboring AtTPS06, AtTPS22, or AtTPS29 | AtTPS06, a multi-product enzyme, produces more than ten different sesterterpenes from GFPP | sesterterpenes ... were detected in transgenic E. coli strains harboring AtTPS06, AtTPS22, or AtTPS29 | 
2 | O=P(O)(O)OP(=O)(O)O [PP] |  |  |  |  | AtTPS18-PP (PDB code 7BZB)
